Measurements: patent publication US20230100235A1, “ANTICANCER AGENT COMPOSITION” (CARNA BIOSCIENCES, INC., priority 2020, published 2023)

Test system: OCI-Ly10 cells
Test: Combined effect of BTK inhibitor and BCL-2 inhibitor by BLISS score, OCI-Ly10
Type: cell-based, Human
Details: combination with venetoclax, 8×8 matrix, positive = synergistic
Experimental: The BLISS score is one of the criteria used to evaluate synergistic effects in combination of agents (Borisy et al. Proc. Natl. Acad. Sci. USA., 100(13): 7977-7982 (2003); Griner et al. Proc. Natl. Acad. Sci. USA., 111(6): 2349-54 (2014)). This BLISS score was used to analyze the combined effect of a BTK inhibitor and a BCL-2 inhibitor in terms of proliferation inhibition to OCI-Ly10 cells.
After 96 hours of culture, an Alamar Blue reagent was added, and 3 hours later, fluorescence of excitation wavelength 560 nm/fluorescence wavelength 590 nm was measured. Cell proliferation inhibition rate and viability (100−inhibition rate %) were determined by setting a compound-free and cell-free well as 100% and a compound-free and cell-containing well as 0%.
Theoretical BLISS independence (BLISSin) for each well can be calculated from the following formula when agent A and agent B each are thought to have acted as a single agent (i.e., cell proliferation rate when the concentration of either one compound is 0). G is cell viability.
BLISS score for each well can be derived from a difference between the theoretical BLISSin and a measured value of cell proliferation rate. If the BLISS score is a positive number, it is considered that a synergistic effect is present.
BLISS score=100×(BLISSin−G)

Nc1nc(-c2cccc(-n3ccc4cc(C5CC5)cc(F)c4c3=O)c2CO)c2cc(C3=CCN(C4COC4)CC3)[nH]c2n1 [Compound (I-A), 2-(3-{2-amino-6-[1-(oxetan-3-yl)-1,2,3,6-tetrahydropyridin-4-yl]-7H-pyrrolo[2,3-d]pyrimidin-4-yl}-2-(hydroxymethyl)phenyl)-6-cyclopropyl-8-fluoroisoquinolin-1(2H)-one] was tested, and the BLISS score was “positive values”.
